Test system: spontaneously hypertensive rats (SHR)
Experiment: Antihypertensive activity test: blood pressure and heart rate of spontaneously hypertensive rats (SHR)
Assay type: in vivo, rat
Settings: 200 mg/kg; for SHR heart rate, time after administration 0 h / SHR heart rate, time after administration 1 h / SHR heart rate, time after administration 2 h / SHR heart rate, time after administration 3 h / SHR heart rate, time after administration 4 h / SHR heart rate, time after administration 5 h / SHR heart rate, time after administration 6 h: N = 8; for SHR blood pressure (SBP), time after administration 1 h / SHR blood pressure (SBP), time after administration 2 h / SHR blood pressure (SBP), time after administration 3 h / SHR blood pressure (SBP), time after administration 4 h / SHR blood pressure (SBP), time after administration 5 h / SHR blood pressure (SBP), time after administration 6 h / Blood pressure (SBP, mmHg) After administration / Heart rate (beat/min) After administration / Blood pressure (SBP, mmHg) Baseline / Heart rate (beat/min) Baseline: n = 8; for Blood pressure (SBP, mmHg) After administration / Heart rate (beat/min) After administration: after administration (6 h M ± SD); for Heart rate Difference (beat/min): after administration minus baseline (6 h); for Blood pressure Difference mmHg: baseline minus after administration (6 h); for Blood pressure (SBP, mmHg) Baseline / Heart rate (beat/min) Baseline: before administration, M ± SD
Procedure: Tested Drugs: Compounds of the Invention. The dosage of all compound was uniformly set to 200 mg/kg.
In the test, changes in the blood pressure before and after the administration were detected, and compared with the basic value, a reduction of SBP ≥20 mmHg after administration was judged as effective antihypertensive effects; and at the same time, changes in the heart rate before and after the administration were detected.
Heart rate was expressed as mean±standard deviation (x±s). The changes of heart rate before and after the administration were compared by using Two-sample equal variance paired t test, and P<0.05 was regarded as the standard of statistically significant difference.

Structure (SMILES)	SBP Difference before and after administration, 1 h	SHR blood pressure (SBP), time after administration 1 h	SBP Difference before and after administration, 2 h	SHR blood pressure (SBP), time after administration 2 h	SBP Difference before and after administration, 3 h	SHR blood pressure (SBP), time after administration 3 h	SBP Difference before and after administration, 4 h	SHR blood pressure (SBP), time after administration 4 h	SBP Difference before and after administration, 5 h	SHR blood pressure (SBP), time after administration 5 h	SBP Difference before and after administration, 6 h	SHR blood pressure (SBP), time after administration 6 h	further results
CCc1ccc(C(O)CO)cc1 (centres unmarked) [Compound 4]	3 mmHg	182 ± 11.6 mmHg	7 mmHg	178 ± 10.8 mmHg	8 mmHg	177 ± 10.9 mmHg	5 mmHg	180 ± 15.80 mmHg	1 mmHg	184 ± 16.0 mmHg	−1 mmHg	186 ± 17.7 mmHg	SHR heart rate, time after administration 0 h: 345 ± 42.2 beat/min; Heart rate Difference before and after administration, 1 h: 2 beat/min; SHR heart rate, time after administration 1 h: 347 ± 42.6 beat/min; Heart rate Difference before and after administration, 2 h: 4 beat/min; SHR heart rate, time after administration 2 h: 349 ± 49.7 beat/min; Heart rate Difference before and after administration, 3 h: 4 beat/min; SHR heart rate, time after administration 3 h: 349 ± 48.3 beat/min; Heart rate Difference before and after administration, 4 h: 0 beat/min; SHR heart rate, time after administration 4 h: 345 ± 45.1 beat/min; Heart rate Difference before and after administration, 5 h: −6 beat/min; SHR heart rate, time after administration 5 h: 338 ± 39.7 beat/min; Heart rate Difference before and after administration, 6 h: −4 beat/min; SHR heart rate, time after administration 6 h: 341 ± 46.9 beat/min; Blood pressure (SBP, mmHg) After administration: 181 ± 13.2 mmHg; Heart rate (beat/min) After administration: 346 ± 43.4 beat/min; Heart rate Difference (beat/min): 1 beat/min; Blood pressure Difference mmHg: 3 mmHg; Blood pressure (SBP, mmHg) Baseline: 184 ± 14.7 mmHg; Heart rate (beat/min) Baseline: 345 ± 42.2 beat/min
CC(C)c1cccc(C(O)CO)c1 (centres unmarked) [Compound 9]	2 mmHg	192 ± 11.6 mmHg	6 mmHg	188 ± 12.1 mmHg	17 mmHg	177 ± 12.3 mmHg	14 mmHg	180 ± 12.85 mmHg	10 mmHg	184 ± 16.0 mmHg	8 mmHg	186 ± 17.8 mmHg	
CCc1cccc([C@H](O)CO)c1 [Compound 1-2]	10 mmHg	176 ± 6.39 mmHg	22 mmHg	164 ± 4.50 mmHg	25 mmHg	161 ± 9.15 mmHg	23 mmHg	163 ± 13.7 mmHg	12 mmHg	174 ± 15.9 mmHg	8 mmHg	178 ± 8.78 mmHg	
CCC(O)c1cccc(CO)c1 (centres unmarked) [Compound 13]	3 mmHg	186 ± 12.4 mmHg	12 mmHg	178 ± 12.0 mmHg	19 mmHg	171 ± 13.1 mmHg	14 mmHg	176 ± 11.4 mmHg	10 mmHg	180 ± 11.9 mmHg	14 mmHg	176 ± 10.1 mmHg	SHR heart rate, time after administration 0 h: 319 ± 21.0 beat/min; Heart rate Difference before and after administration, 1 h: 6 beat/min; SHR heart rate, time after administration 1 h: 325 ± 24.2 beat/min; Heart rate Difference before and after administration, 2 h: 14 beat/min; SHR heart rate, time after administration 2 h: 332 ± 38.9 beat/min; Heart rate Difference before and after administration, 3 h: 17 beat/min; SHR heart rate, time after administration 3 h: 335 ± 43.8 beat/min; Heart rate Difference before and after administration, 4 h: 15 beat/min; SHR heart rate, time after administration 4 h: 334 ± 45.8 beat/min; Heart rate Difference before and after administration, 5 h: 10 beat/min; SHR heart rate, time after administration 5 h: 329 ± 39.5 beat/min; Heart rate Difference before and after administration, 6 h: 2 beat/min; SHR heart rate, time after administration 6 h: 320 ± 43.1 beat/min; Blood pressure (SBP, mmHg) After administration: 178 ± 11.2 mmHg; Heart rate (beat/min) After administration: 329 ± 27.7 beat/min; Heart rate Difference (beat/min): 10 beat/min; Blood pressure Difference mmHg: 12 mmHg; Blood pressure (SBP, mmHg) Baseline: 190 ± 13.2 mmHg; Heart rate (beat/min) Baseline: 319 ± 21.0 beat/min
[2H]OCC(O[2H])c1cccc(CC)c1 (centres unmarked) [Compound 1-3]	18 mmHg	168 ± 6.39 mmHg	21 mmHg	165 ± 4.50 mmHg	23 mmHg	163 ± 9.15 mmHg	23 mmHg	163 ± 13.7 mmHg	22 mmHg	164 ± 15.9 mmHg	18 mmHg	168 ± 8.78 mmHg	
OCC(O)C(OC1OC(CO)C(O)C(O)C1O)c1ccc(O)cc1 (centres unmarked) [Compound 18]	16 mmHg	176 ± 6.39 mmHg	18 mmHg	174 ± 4.50 mmHg	21 mmHg	171 ± 9.15 mmHg	19 mmHg	173 ± 13.7 mmHg	18 mmHg	174 ± 15.9 mmHg	14 mmHg	178 ± 8.78 mmHg	
OCC(O)c1cccc(Br)c1 (centres unmarked) [Compound 6]	5 mmHg	184 ± 10.9 mmHg	9 mmHg	180 ± 12.4 mmHg	9 mmHg	180 ± 7.80 mmHg	6 mmHg	183 ± 6.56 mmHg	7 mmHg	182 ± 8.29 mmHg	1 mmHg	188 ± 13.2 mmHg	

— US12180146B2, “Antihypertensive polyol compound and derivative thereof” (TAO PHARMACEUTICAL (SUZHOU) CO., LTD, priority 2020, dated 2024)
